In data set [1] the test system is Staphylococcus aureus (ATCC 25923). Description: Intrinsic antimicrobial activity (MIC) against S. aureus. To be noted: ATCC25923, S. aureus ATCC 25923, mean (n = 3), read-out: MIC S. a. The format is cell-based. Here is the method: (§1) The susceptibility of bacterial strains Staphylococcus aureus (ATCC 25923), Escherichia coli (ATCC 25922) and Pseudomonas aeruginosa (ATCC 27853) to antibiotics and compounds was determined using previously reported protocols. Additional antimicrobial evaluation against MRSA (ATCC 43300), Klebsiella pneumoniae (ATCC 700603), Acinetobacter baumannii (ATCC 19606), Candida albicans (ATCC 90028) and Cryptococcus neoformans (ATCC 208821) was undertaken at the Community for Open Antimicrobial Drug Discovery at The University of Queensland (Australia) according to their standard protocols, as reported previously.

For the next data set, the system named is MRSA (ATCC 43300). Description: Intrinsic antimicrobial activity (MIC) against MRSA. The format is cell-based. To be noted: Staphylococcus aureus, MRSA ATCC 43300; mean (n = 2); read-out: MIC MRSA. As for the experimental part: as §1
In data set [2] the test system is Pseudomonas aeruginosa (ATCC 27853). Kind of data set: Intrinsic antimicrobial activity (MIC) against P. aeruginosa. Type of data set: cell-based. To be noted: ATCC27853, P. aeruginosa ATCC 27853, mean (n = 3), read-out: MIC P. a. Here is the method:
as §1

For data set [3], the system named is Escherichia coli (ATCC 25922). Description: Intrinsic antimicrobial activity (MIC) against E. coli. To be noted: ATCC25922, E. coli ATCC 25922, mean (n = 3), read-out: MIC E. c. The format is cell-based. Here is the method:
as §1

Data set [4] deals with Candida albicans (ATCC 90028). Kind of data set: Intrinsic antifungal activity (MIC) against C. albicans. Type of data set: cell-based. To be noted: ATCC90028, C. albicans ATCC 90028, mean (n = 2), read-out: MIC C. a. As for the experimental part:
as §1

The test system of data set [5] is Cryptococcus neoformans (ATCC 208821). Kind of data set: Intrinsic antifungal activity (MIC) against C. neoformans. Type of data set: cell-based. To be noted: ATCC208821, C. neoformans ATCC 208821, mean (n = 2), read-out: MIC C. n. Here is the method:
as §1

The nature of a further data set: Cytotoxicity assay. The format is cell-based. To be noted: human; HEK293 cells; mean (n = 2); read-out: Cytotoxicity: concentration of compound at 50% cytotoxicity (IC50). As for the experimental part:
Cytotoxicity assays were conducted using the protocols previously reported.

A further data set concerns human red blood cells. Description: Hemolytic assay. To be noted: mean (n = 2). Type of data set: cell-based. Here is the method:
Hemolysis assays were conducted using the protocols previously reported.

In a further data set the test system is P. aeruginosa ATCC 27853. Kind of data set: Enhancement of doxycycline action against P. aeruginosa. The format is cell-based, Pseudomonas aeruginosa. To be noted: doxycycline at 4.5 µM. As for the experimental part:
(§2) Antibiotic enhancer concentrations were determined using previously reported protocols.

The test system of another data set is E. coli ATCC 25922. Description: Enhancement of erythromycin action against E. coli. The format is cell-based, Escherichia coli. To be noted: erythromycin at 10.9 µM. As for the experimental part: as §2

For `O=C(Cc1c[nH]c2ccccc12)NCCCNCCCCCCNCCCNC(=O)Cc1c[nH]c2ccccc12.O=C(O)C(F)(F)F.O=C(O)C(F)(F)F` [Compound 14b, N^1,N^6-Bis(3-(2-(1H-indol-3-yl)acetamido)propyl)hexane-1,6-diaminium 2,2,2-trifluoroacetate], the MIC in data set [1] was 129 µM; in the data set with MRSA (ATCC 43300), below 0.2 µM; in data set [2], above 259 µM; in data set [3], above 129 µM; in data set [4], above 41 µM; in data set [5], below 0.2 µM. In addition, the IC50 in the data set “Cytotoxicity assay” was above 41 µM. Also, the “Hemolysis: concentration of compound at 10% hemolytic activity (HC10)” value (“Hemolysis … at 10% hemolytic activity (HC10)” below) with human red blood cells is above 41 µM. The “Dox/P. a fold change (ratio between intrinsic MIC of the test compound and combination MIC)” value with P. aeruginosa ATCC 27853 is reported as above 2 fold. Besides, in the data set with P. aeruginosa ATCC 27853, the “Dox/P. a: concentration required to restore doxycycline activity (combination MIC)” value (“Dox/P. a: concentration required” below) is 129 µM. The “Eryth/E. c: concentration required to restore erythromycin activity (combination MIC)” value (“Eryth/E. c: concentration required” for short) in the data set on E. coli ATCC 25922 was above 259 µM.
For the compound `Cc1ccc2[nH]cc(CC(=O)NCCCNCCCCCCCCNCCCNC(=O)Cc3c[nH]c4ccc(C)cc34)c2c1.O=C(O)C(F)(F)F.O=C(O)C(F)(F)F` [Compound 17d, N^1,N^8-Bis(3-(2-(5-methyl-1H-indol-3-yl)acetamido)propyl)octane-1,8-diaminium 2,2,2-trifluoroacetate], the MIC in data set [1] is 15.1 µM; in the data set with MRSA (ATCC 43300) it was at most 0.3 µM; in data set [2] it was above 241 µM; in data set [3] it was 241 µM; in [4], 2.41 µM; in [5], at most 0.3 µM. For the same compound, in “Cytotoxicity assay”, the IC50 is above 39 µM. Also, the “Hemolysis … at 10% hemolytic activity (HC10)” value in the data set with human red blood cells is recorded as 0.42 µM. In addition, in the data set with P. aeruginosa ATCC 27853, the “Dox/P. a fold change (ratio between intrinsic MIC of the test compound and combination MIC)” value was above 1 fold. Moreover, the “Dox/P. a: concentration required” value in the data set with P. aeruginosa ATCC 27853 is on record as 241 µM. Further, the “Eryth/E. c: concentration required” value in the data set on E. coli ATCC 25922 stood at 121 µM.
Regarding `O=C(Cc1c[nH]c2c(F)cccc12)NCCCNCCCCCCCNCCCNC(=O)Cc1c[nH]c2c(F)cccc12.O=C(O)C(F)(F)F.O=C(O)C(F)(F)F` [Compound 18c, N^1,N^7-Bis(3-(2-(7-fluoro-1H-indol-3-yl)acetamido)propyl)heptane-1,7-diaminium 2,2,2-trifluoroacetate], the MIC in data set [1] is 30.4 µM; in the data set on MRSA (ATCC 43300), at most 0.3 µM; in data set [2] it was above 243 µM; in data set [3] it was above 243 µM; in [4], 38.9 µM; in data set [5] it was at most 0.3 µM. Moreover, in the data set “Cytotoxicity assay”, the IC50 is above 39 µM. Moreover, the “Hemolysis … at 10% hemolytic activity (HC10)” value in the data set with human red blood cells was determined as 1.94 µM. For the same compound, the “Dox/P. a fold change (ratio between intrinsic MIC of the test compound and combination MIC)” value in the data set on P. aeruginosa ATCC 27853 is on record as above 1 fold. Also, in the data set on P. aeruginosa ATCC 27853, the “Dox/P. a: concentration required” value is listed as 243 µM. For the same compound, the “Eryth/E. c: concentration required” value in the data set on E. coli ATCC 25922 is reported as 243 µM.
In the case of `O=C(Cc1c[nH]c2c(F)cccc12)NCCCNCCCCCCCCNCCCNC(=O)Cc1c[nH]c2c(F)cccc12.O=C(O)C(F)(F)F.O=C(O)C(F)(F)F` [Compound 18d, N^1,N^8-Bis(3-(2-(7-fluoro-1H-indol-3-yl)acetamido)propyl)octane-1,8-diaminium 2,2,2-trifluoroacetate], the MIC in [1] was 29.9 µM; in the data set on MRSA (ATCC 43300), below 0.2 µM; in data set [2], above 239 µM; in data set [3] it was above 239 µM; in [4], above 38 µM; in [5] it was below 0.2 µM. For the same compound, the IC50 in “Cytotoxicity assay” was above 38 µM. Also, the “Hemolysis … at 10% hemolytic activity (HC10)” value with human red blood cells is reported as above 38 µM. Further, the “Dox/P. a fold change (ratio between intrinsic MIC of the test compound and combination MIC)” value with P. aeruginosa ATCC 27853 worked out at 1 fold. Moreover, the “Dox/P. a: concentration required” value with P. aeruginosa ATCC 27853 is on record as above 239 µM. In addition, in the data set with E. coli ATCC 25922, the “Eryth/E. c: concentration required” value is listed as above 239 µM.

Usually MIC stands for the lowest concentration that inhibits growth of the organism.

(Values after article PMC10452110, “Indole-3-Acetamido-Polyamines as Antimicrobial Agents and Antibiotic Adjuvants” (Biomolecules, 2023).)
